Experimental data taken from patent US20050129680A1, “Antimicrobial activity of antibodies” (priority 2001, published 2005).
Where “and” joins values, the source holds several entries; their conditions need not be identical. Identical values can stand only once.

Experiments:
[1] = Decomposition of O3 under aqueous conditions; assay type: physicochemical; conditions: PBS pH 7.4, 22° C.
Method: The rate of decomposition of O3 under the aqueous conditions employed was measured by the following method. Ozone, produced by a passage of O2 through a Polymetrics ozonizer, was bubbled for 2 min through a phosphate buffered saline (PBS, pH 7.4) solution in a quartz cuvette (1 cm^2) at room temperature. The time-dependent change in optical density was then measured at 260 nm (ε=2,700 M^−[…]) for at least 5 half lives in a Hitachi u.v./vis spectrophotometer equipped with a thermostatted rack at 22° C. See Takeuchi et al., Anal. Chim. Acta. 230, 183 (1990). […] The sensitivity of the assay was limited by spectrophotometer accuracy to ±0.1% (˜1 μM) of the OD at t=0.

[2] = Antibody/protein UV irradiation with Amplex Red quantitative assay for hydrogen peroxide; assay type: biochemical; conditions: for reduction of ^1O2 (panel of other proteins): UV irradiation, PBS
Method: Aliquots (10 μL) were removed at timed intervals throughout the assay. H2O2 concentration was determined by the amplex red method. Each data point is reported as the mean±SEM of at least duplicate measurements: ? polyclonal (poly) immunoglobulin (Ig) G, human; O poly-IgG, horse; ? poly-IgG, sheep; ∇ monoclonal (m) IgG (WD1-6G6), murine; ? poly-IgM, human; ? mIgG (92H2), murine; ¦ β-galactosidase (β-gal); ? chick ovalbumin (OVA); ? a-lactalbumin (a-lact); ? bovine serum albumin (BSA).
Antibody/Protein Irradiation.
Quantitative Assay for Hydrogen Peroxide. An aliquot (20 μl) from the protein solution was removed and added into a well of a 96-well microtiter plate (Costar) containing reaction buffer (80 μl). Working solution (100 μl/400 μM Amplex Red reagent 1/2 units/ml horseradish peroxidase) was then added, and the plate was incubated in the dark for 30 min. The fluorescence of the well components was then measured using a CytoFluor Multiwell Plate Reader (Series 4000, PerSeptive Biosystems, Framingham, Mass.; Ex/Em: 530/580 nm). The hydrogen peroxide concentration was determined using a standard curve. All experiments were run in duplicate, and the rate is quoted as the mean of at least two measurements.
A suspension of crystals of the Fab fragment of 1D4 (2 μl) was diluted with PBS (198 μl, pH 7.4) and vortexed gently. Following centrifugation, the supernatant was removed, and the washing procedure was repeated twice further. The residual crystal suspension was then diluted into PBS, pH 7.4 (100 μl), and added into a well of a quartz ELISA plate. Following UV irradiation for 30 min, Amplex Red working solution (100 μl) was added, and the mixture was viewed on a fluorescence microscope.
Denaturation. […] The resultant solution was transferred to a glass, screw-cap vial and irradiated with UV light for 30 min. The concentration of H2O2 was determined after 30 min.

E. coli = assay: Bactericidal assay (CFU recovery), strain not singled out; assay type: cell-based; conditions: 40 μM, white light 2.7 mW cm^−2, 1 h, PBS, 4±1° C.
Method: In a typical experiment, a culture of E. coli (in log phase growth, OD600=0.2-0.3) was repeatedly pelleted (3×3,500 rpm) and resuspended in PBS (pH 7.4). The PBS suspended cells were then added to glass vials and cooled to 4° C. […] Viability was determined by recovery of colony forming units (CFUs) on agar plates. Each experiment was performed at least in duplicate.
In a typical experiment, a culture of E. coli (in log phase growth, OD600=0.2-0.3) was repeatedly washed in PBS by pelleting (3×3,500 rpm) the cells and resuspending them in PBS (pH 7.4). The PBS suspended cells were then added to glass vials and cooled to 4° C. […] Viability was determined by recovery of colony forming units (CFUs) on agar plates. Each experiment was performed at least in duplicate.

horse poly-IgG = conditions: read-out: IC50 of H2O2 on the photo-production of H2O2 by horse poly-IgG; horse IgG 6.7 μM, H2O2 0-450 μM, near-UV
Method: Such a graph permits determination of the IC50 of H2O2 on the photo-production of H2O2 by horse poly-IgG. A solution of horse IgG (6.7 μM) was incubated with varying concentrations of H2O2 (0-450 μM) and the initial rate of H2O2 formation measured as described in FIG. 8A.

E. coli XL1-blue = assay: Bactericidal assay (CFU recovery); assay type: cell-based; conditions: catalase 13 mU/mL
Method: In a typical experiment, a culture of E. coli (in log phase growth, OD600=0.2-0.3) was repeatedly pelleted (3×3,500 rpm) and resuspended in PBS (pH 7.4). The PBS suspended cells were then added to glass vials and cooled to 4° C. Hematoporphyrin IX (40 μM) and antibody (20 μM) were added and the vials were either placed on a light box (visible light, 2.8 mW cm^−2) or in the dark at 4° C. and incubated for 1 h. Viability was determined by recovery of colony forming units (CFUs) on agar plates. Each experiment was performed at least in duplicate.
In a typical experiment, a culture of E. coli (in log phase growth, OD600=0.2-0.3) was repeatedly washed in PBS by pelleting (3×3,500 rpm) the cells and resuspending them in PBS (pH 7.4). The PBS suspended cells were then added to glass vials and cooled to 4° C. Hematoporphyrin IX (40 μM) and antibody (20 μM) were added and the vials were either placed on a light box (visible light, 2.8 mW cm^−2) or in the dark at 4° C. and incubated for 1 h. Viability was determined by recovery of colony forming units (CFUs) on agar plates. Each experiment was performed at least in duplicate.

Molecule: O=[O+][O-] [Clone O3, ozone]
- half-life (t1/2) under aqueous conditions [1]: 1.1 min

Molecule: β-galactosidase
- H2O2 generated during near-UV irradiation ([2]; near-UV irradiation, 6.7 μM): 5.9 mol eq.

Molecule: CC1=C(CCC(=O)O)c2cc3[nH]c(cc4nc(cc5[nH]c(cc1n2)c(C)c5C(C)O)C(C)=C4C(C)O)c(C)c3CCC(=O)O (centres unmarked) [hematoporphyrin IX]
- bactericidal activity of sensitizer alone (E. coli): negligible bactericidal activity

Molecule: OO [Clone H2O2, hydrogen peroxide]
- IC50 (horse poly-IgG): ~225 µM and 225 µM

Molecule: N[C@@H](Cc1c[nH]c2ccccc12)C(=O)O [tryptophan]
- H2O2 produced during near-UV photo-oxidation ([2]; near-UV irradiation, 20 μM): ca. 0.5 mole equivalents

Molecule: catalase
- protection against the bactericidal activity of non-specific antibodies (E. coli XL1-blue): complete protection

B1: chick ovalbumin: chick-egg ovalbumin (protein, UniProt P01012 2-386, looked up)
Ovalbumin: GSIGAASMEFCFDVFKELKVHHANENIFYCPIAIMSALAMVYLGAKDSTRTQINKVVRFDKLPGFGDSIEAQCGTSVNVHSSLRDILNQITKPNDVYSFSLASRLYAEERYPILPEYLQCVKELYRGGLEPINFQTAADQARELINSWVESQTNGIIRNVLQPSSVDSQTAMVLVNAIVFKGLWEKAFKDEDTQAMPFRVTEQESKPVQMMYQIGLFRVASMASEKMKILELPFASGTMSMLVLLPDEVSGLEQLESIINFEKLTEWTSSNVMEERKIKVYLPRMKMEEKYNLTSVLMAMGITDVFSSSANLSGISSAESLKISQAVHAAHAEINEAGREVVGSAEAGVDAASVSEEFRADHPFLFCIKHIATNAVLFFGRCVSP
- reduction of ^1O2 (panel of other proteins) [2]: one of the most efficient proteins

B2: RNase A: ribonuclease, no Trp residues, several disulfide bonds (protein, UniProt P61823 27-150, looked up)
Ribonuclease pancreatic: KETAAAKFERQHMDSSTSAASSSNYCNQMMKSRNLTKDRCKPVNTFVHESLADVQAVCSQKNVACKNGQTNCYQSYSTMSITDCRETGSSKYPNCAYKTTQANKHIIVACEGNPYVPVHFDASV
- reduction of ^1O2 (panel of other proteins) [2]: do not reduce
